The values that follow come from publication PMC9603588, “Structural Basis of Peptide-Based Antimicrobial Inhibition of a Resistance-Nodulation-Cell Division Multidrug Efflux Pump” (Microbiology Spectrum, 2022).

The target in assay [1] is MtrD_(CR103) multidrug efflux pump (MtrD from N. gonorrhoeae strain CR.103) (Neisseria gonorrhoeae strain CR.103) (UniProt Q51073). Put plainly: cryo-EM structure; 2 μM MtrD_(CR103)-nanodisc sample incubated with 100 μM CASP, 20 μM Col or 50 μM LL for 2 h; single-particle cryo-EM.
Assay [2] concerns E. coli BL21(DE3) ΔacrB/pACYCΩmtrCDE. Put plainly: MIC of antibiotics for E. coli BL21(DE3) ΔacrB/pACYCΩmtrCDE. The assay is classed as cell-based. Conditions: Escherichia coli.
Assay [3] deals with E. coli K-12 ΔtolC::kan. Put plainly: MIC of Nov for E. coli K-12 ΔtolC::kan. It counts as cell-based. To be noted: Escherichia coli, read-out: MIC of Nov.
The subject of assay [4] is N. gonorrhoeae WHO X. Put plainly: Nov MIC against gonococci by agar dilution, WHO X. Conditions: Neisseria gonorrhoeae, strain WHO X. The assay is classed as cell-based. How it is done:
(§1) The MICs for Nov were determined by agar dilution as described previously ([53]). The construction of the mtrD::kan transformants was described previously ([3], [61]); note that WHO X was originally termed H041.
In general terms: In agar dilution, organisms are placed on agar that contains the substance at set levels.

The subject of assay [5] is P. aeruginosa. Put plainly: MIC of Nov for P. aeruginosa. The assay is classed as cell-based. Conditions: Pseudomonas aeruginosa.
Assay [6] has as its system N. subflava ATCC 49275. Put plainly: MIC of Nov for N. subflava. To be noted: Neisseria subflava, ATCC49275. The assay is classed as cell-based.
Assay [7] relates to N. gonorrhoeae FA19 mtrD::kan. Put plainly: Nov MIC against gonococci by agar dilution, FA19 mtrD::kan. Conditions: Neisseria gonorrhoeae. It counts as cell-based. How it is done: as §1
The test system of assay [8] is E. coli K-12. Put plainly: MIC of Nov for E. coli K-12. To be noted: Escherichia coli, K12. It counts as cell-based.
Assay [9] relates to S. enterica subsp. enterica. Put plainly: MIC of Nov for S. enterica subsp. enterica. It counts as cell-based. To be noted: Salmonella enterica.
The test system of assay [10] is N. gonorrhoeae WHO X mtrD::kan. Put plainly: Nov MIC against gonococci by agar dilution, WHO X mtrD::kan. Conditions: Neisseria gonorrhoeae. The assay is classed as cell-based. On the procedure: as §1
Assay [11] deals with N. gonorrhoeae FA19. Put plainly: Nov MIC against gonococci by agar dilution, FA19. Conditions: Neisseria gonorrhoeae, strain FA19. The assay is classed as cell-based. On the procedure:
as §1

In brackets after ≈: the same amount, converted by molar mass. Like-named read-outs stand apart in the source and are kept apart here. A value given as a limit tells only on which side of the number the result lay.

Turning to “MtrD_(CR103) multidrug efflux pump (MtrD from N. gonorrhoeae strain CR.103) (from UniProt Q51073 1-1067) (natural protein)”, the stoichiometry N in assay [1] came out at 3.

Consider `CO[C@@H]1[C@@H](OC(N)=O)[C@@H](O)[C@H](Oc2ccc3c(O)c(NC(=O)c4ccc(O)c(CC=C(C)C)c4)c(=O)oc3c2C)OC1(C)C` [Nov, novobiocin], for which the MIC in assay [2] (read-out: MIC for Nov) is 125 µg/mL; in assay [3], 4 µg/mL; in [4], 1 µg/mL (≈ 1.63 µM); in [5], more than 1000 µg/mL; in [6], 1 µg/mL; in [7], 0.06 µg/mL (≈ 0.0979 µM). The minimum inhibitory concentration (MIC) in assay [8] was more than 128 µg/mL; in [9], 512 µg/mL; in assay [10] it was 0.25 µg/mL (≈ 0.408 µM); in [11], 0.25 µg/mL (≈ 0.408 µM).

Take `[H]/N=C(/N)N[C@H]1[C@H](O)[C@@H](O)[C@H](O[C@@H]2O[C@@H](C)[C@](O)(C=O)[C@H]2O[C@@H]2O[C@@H](CO)[C@H](O)[C@@H](O)[C@@H]2NC)[C@@H](N/C(N)=N\[H])[C@@H]1O` [streptomycin]: the minimum inhibitory concentration (MIC) in assay [2] (read-out: MIC of streptomycin) turned out to be 8 µg/mL.

In general, stoichiometry N refers to the number of molecules, sites or subunits per partner or assembly. By MIC is commonly meant the smallest concentration in the dilution series that meets the test's criterion for growth inhibition.
